This assay in a line: Inhibition of PDGF-induced proliferation in RAOSMC. Also on record: species or system Rattus norvegicus.

In the case of `COc1ccc(NC2=C(Cl)C(=O)c3nc(-c4ccncc4)[nH]c3C2=O)cc1`, it took 50 µM to reach half-maximal inhibition (IC50) and the pIC50 stood at 4.3.

As for `O=C1C(Br)=C(Nc2ccc(F)cc2)C(=O)c2[nH]cnc21`, the concentration for half-maximal inhibition (IC50) was 1 µM and the pIC50 amounted to 6. With `O=C1C(Cl)=C(Nc2ccc(I)cc2)C(=O)c2[nH]c(C(F)(F)F)nc21`, half-maximal inhibition (IC50) was put at 25 µM. In other words, the double-digit micromolar range. In turn, `O=C1C(Br)=C(Nc2ccc(Cl)cc2)C(=O)c2[nH]cnc21` displayed an IC50 of 4 µM. Compared with the last compound, the IC50 is about 6.2-fold lower. As to `Cc1nc2c([nH]1)C(=O)/C(=N/c1ccc(I)cc1)C(Cl)=C2O`, half-maximal inhibition (IC50) was put at 1 µM. As to `Cc1ccc(NC2=C(Cl)C(=O)c3nc(C(F)(F)F)[nH]c3C2=O)cc1`, the midpoint of inhibition, the IC50, lay at 40 µM. The compound `Cc1cccc(NC2=C(Cl)C(=O)c3nc(-c4ccncc4)[nH]c3C2=O)c1` showed an IC50 of 60 µM. This IC50 is about 1.5-fold higher than that of the compound before. In turn, `O=C1C(Cl)=C(Nc2cccc(Cl)c2)C(=O)c2[nH]c(-c3ccccn3)nc21` displayed an IC50 of 3.5 µM. `O=C1C(Cl)=C(Nc2ccc(OC(F)(F)F)cc2)C(=O)c2[nH]cnc21` yielded a half-maximal inhibitory concentration (IC50) of 2.5 µM. On to `Cc1nc2c([nH]1)C(=O)/C(=N/c1cccc(Br)c1)C(Cl)=C2O`, for which the half-maximal inhibitory concentration (IC50) was determined as 1 µM.

For the compound `O=C1C(Cl)=C(Nc2ccc(Br)cc2)C(=O)c2[nH]c(-c3ccccn3)nc21`, the IC50 was found to be 6.5 µM.

`Cc1ccc(NC2=C(Cl)C(=O)c3nc(C)[nH]c3C2=O)cc1`: the IC50 is 0.8 µM.

The compound `Cc1nc2c([nH]1)C(=O)/C(=N/c1ccc(Cl)cc1Cl)C(Cl)=C2O` had an IC50 of 0.8 µM. With `O=C1C(Cl)=C(Nc2cccc(Br)c2)C(=O)c2[nH]cnc21`, half-maximal inhibition (IC50) required 1.6 µM. Take `Cc1nc2c([nH]1)C(=O)/C(=N/c1ccc(F)cc1F)C(Cl)=C2O`: inhibition was half-maximal at 1.2 µM (IC50). The IC50 values of the last two compounds are within 1.5-fold of each other. As to `O=C1C(Cl)=C(Nc2ccccc2F)C(=O)c2[nH]cnc21`, the half-inhibitory concentration (IC50) amounted to 1.7 µM and the pIC50 worked out at 5.77. `O=C1C(Cl)=C(Nc2ccccc2)C(=O)c2[nH]c(C(F)(F)F)nc21` yielded an IC50 of 50 µM.

`O=C1C(Cl)=C(Nc2ccc(OC(F)(F)F)cc2)C(=O)c2nc(-c3ccccn3)c(-c3ccccn3)nc21` gave an IC50 of 1 µM. `O=C1C(Cl)=C(Nc2ccccc2)C(=O)c2[nH]cnc21` came in with a concentration for half-maximal inhibition (IC50) of 5.5 µM and a pIC50 of 5.26. In turn, `O=C1C(Cl)=C(Nc2cccc(I)c2)C(=O)c2[nH]cnc21` returned an IC50 of 1.3 µM. That is a single-digit micromolar value. Regarding `N#Cc1ccc(NC2=C(Cl)C(=O)c3nc[nH]c3C2=O)cc1`, the IC50 is 2.7 µM. The compound `O=C1C(Br)=C(Nc2ccccc2)C(=O)c2[nH]cnc21` came in with a concentration for half-maximal inhibition (IC50) of 1.1 µM. This IC50 lies about 2.5-fold lower than the previous one. Compound `Cc1nc2c([nH]1)C(=O)/C(=N/c1cccc(Cl)c1Cl)C(Cl)=C2O` returned a half-maximal inhibitory concentration (IC50) of 0.6 µM. Same read-out and setting: the value for `Cc1nc2c(nc1C)C(=O)C(Nc1ccc(Br)cc1)=CC2=O` was 1.1 µM; that for `O=C1C(Cl)=C(Nc2cccc(F)c2)C(=O)c2[nH]c(-c3ccncc3)nc21` was 19 µM.

In turn, `O=C1C(Br)=C(Nc2cccc(Br)c2)C(=O)c2[nH]cnc21` displayed a half-maximal inhibitory concentration (IC50) of 5.3 µM. This IC50 is about 3.6-fold lower than that of the compound before.

As for `O=C1C(Cl)=C(Nc2ccc(OC(F)(F)F)cc2)C(=O)c2[nH]c(-c3ccccn3)nc21`, the midpoint of inhibition, the IC50, lay at 6 µM. Turning to `O=C1C(Cl)=C(Nc2ccc(C(F)(F)F)cc2)C(=O)c2[nH]cnc21`, the IC50 was 2.5 µM and the negative logarithm of the IC50 (pIC50) is on record as 5.6. In turn, `Cc1ccc(NC2=C(Cl)C(=O)c3nc[nH]c3C2=O)cc1` had a half-maximal inhibitory concentration (IC50) of 1.4 µM. Same read-out and setting: the result for `Cc1nc2c([nH]1)C(=O)/C(=N/c1ccc(C(F)(F)F)cc1)C(Cl)=C2O` reads 0.6 µM.

`O=C1C(Cl)=C(Nc2ccc(Cl)cc2)C(=O)c2[nH]c(-c3ccccn3)nc21` displayed an IC50 of 12 µM. `Cc1nc2c([nH]1)C(=O)/C(=N/c1ccc(F)cc1)C(Cl)=C2O` had an IC50 of 3 µM.

`CCc1ccc(NC2=C(Cl)C(=O)c3nc(C)[nH]c3C2=O)cc1` had an IC50 of 3 µM and a pIC50 of 5.52. Consider `CCOc1ccc(NC2=CC(=O)c3nc(-c4ccccn4)[nH]c3C2=O)cc1`, for which the half-maximal inhibitory concentration (IC50) was 6.5 µM. This lies in the single-digit micromolar range.

As for `O=C1C(Cl)=C(Nc2ccc(F)cc2)C(=O)c2[nH]c(C(F)(F)F)nc21`, inhibition was half-maximal at 12 µM (IC50). `O=C1C(Cl)=C(Nc2ccc(Cl)c(Cl)c2)C(=O)c2[nH]c(-c3ccncc3)nc21` returned an IC50 of 13 µM. The IC50 values of the last two compounds are within 1.5-fold of each other. On to `O=C1C(Cl)=C(Nc2cccc(Br)c2)C(=O)c2[nH]c(-c3ccncc3)nc21`, for which the IC50 came out at 20 µM and the negative logarithm of the IC50 (pIC50) came to 4.7. As for `O=C1C(Cl)=C(Nc2ccc(Br)cc2)C(=O)c2[nH]cnc21`, half-maximal inhibition (IC50) required 2 µM. Consider `Cc1ccc(NC2=C(Cl)C(=O)c3nc(-c4cccnc4)[nH]c3C2=O)cc1`, for which the IC50 amounted to 45 µM and the pIC50 stood at 4.35.

In the case of `O=C1C=C(Nc2ccc(Br)cc2)C(=O)c2[nH]c(-c3ccccn3)nc21`, the midpoint of inhibition, the IC50, lay at 12 µM. `Cc1nc2c(nc1C)C(=O)C(Nc1ccc(Cl)c(Cl)c1)=CC2=O` returned an IC50 of 3.8 µM. Compared with the last compound, the IC50 is about 3.2-fold lower. `Cc1nc2c(nc1C)C(=O)C(Nc1cc(F)cc(F)c1)=CC2=O` displayed a half-maximal inhibitory concentration (IC50) of 4.5 µM. On to `O=C1C(Cl)=C(Nc2cccc(Cl)c2)C(=O)c2[nH]cnc21`, for which inhibition was half-maximal at 1.4 µM (IC50). With `O=C1C(Cl)=C(Nc2ccc(F)c(F)c2)C(=O)c2[nH]cnc21`, it took 1.1 µM to reach half-maximal inhibition (IC50).

The compound `O=C1C(Cl)=C(Nc2ccc(I)cc2)C(=O)c2[nH]cnc21` returned an IC50 of 1.3 µM and a negative logarithm of the IC50 (pIC50) of 5.89. Consider `O=C1C(Cl)=C(Nc2ccc(F)cc2)C(=O)c2[nH]c(-c3cccnc3)nc21`, for which inhibition was half-maximal at 21 µM (IC50). Take `O=C1C(Br)=C(Nc2cccc(C(F)(F)F)c2)C(=O)c2[nH]cnc21`: 3 µM corresponded to half-maximal inhibition (IC50).

Take `CCOc1ccc(NC2=C(Cl)C(=O)c3nc(-c4cccnc4)[nH]c3C2=O)cc1`: half-maximal inhibition (IC50) was put at 42 µM. Compared with the last compound, the IC50 is about 14-fold higher. The compound `O=C1C(Cl)=C(Nc2ccc(C(F)(F)F)cc2)C(=O)c2[nH]c(C(F)(F)F)nc21` yielded an IC50 of 20 µM. The compound `Cc1nc2c([nH]1)C(=O)/C(=N/c1cccc(Cl)c1)C(Cl)=C2O` had an IC50 of 0.9 µM. The compound `Cc1nc2c([nH]1)C(=O)C(Nc1ccc(OC(F)(F)F)cc1)=C(Cl)C2=O` displayed an IC50 of 3 µM. On the same count and under the same terms, the result for `O=C1C(Br)=C(Nc2cccc(Cl)c2)C(=O)c2[nH]cnc21` reads 3 µM; that for `O=C1C(Cl)=C(Nc2ccc(F)cc2)C(=O)c2[nH]cnc21`, 1.2 µM; that for `O=C1C(Cl)=C(Nc2ccc(Cl)cc2)C(=O)c2[nH]c(-c3cccnc3)nc21`, 20 µM. `CCOc1ccc(NC2=C(Cl)C(=O)c3nc(-c4ccncc4)[nH]c3C2=O)cc1` came in with an IC50 of 75 µM. For `Cc1nc2c([nH]1)C(=O)/C(=N/c1ccc(Cl)cc1)C(Cl)=C2O`, the IC50 came to 2.8 µM and the negative logarithm of the IC50 (pIC50) worked out at 5.55.

`O=C1C(Cl)=C(Nc2ccc(Cl)cc2)C(=O)c2[nH]c(C(F)(F)F)nc21` registered an IC50 of 15 µM and a negative logarithm of the IC50 (pIC50) of 4.82. `O=C1C(Cl)=C(Nc2ccc(Cl)c(F)c2)C(=O)c2[nH]c(-c3ccncc3)nc21`: the IC50 is 25 µM and the negative-log IC50 (pIC50) is reported as 4.6.

For `Cc1nc2c([nH]1)C(=O)/C(=N/c1ccc(F)c(F)c1F)C(Cl)=C2O`, 0.8 µM corresponded to half-maximal inhibition (IC50). This counts as sub-micromolar.

`O=C1C(Cl)=C(Nc2ccc(Cl)cc2)C(=O)c2nc(-c3ccccn3)c(-c3ccccn3)nc21` yielded an IC50 of 1.5 µM and a pIC50 of 5.82. Compound `Cc1nc2c([nH]1)C(=O)/C(=N/c1ccccc1)C(Cl)=C2O` displayed a 50% inhibitory concentration (IC50) of 0.8 µM. This lies in the sub-micromolar range. `O=C1C(Br)=C(Nc2cccc(I)c2)C(=O)c2[nH]cnc21` yielded a half-inhibitory concentration (IC50) of 2.5 µM. Against the preceding compound, the IC50 is about 3.1-fold higher. Still for that read-out and setting: the result for `O=C1C(Cl)=C(Nc2ccc(Cl)c(Cl)c2)C(=O)c2nc(-c3ccccn3)c(-c3ccccn3)nc21` reads 1 µM; that for `Cc1ccc(NC2=C(Br)C(=O)c3nc[nH]c3C2=O)cc1`, 1 µM; that for `O=C1C(Cl)=C(Nc2ccc(F)cc2)C(=O)c2nc(-c3ccccn3)c(-c3ccccn3)nc21`, 1 µM. With `O=C1C=C(Nc2ccc(OC(F)(F)F)cc2)C(=O)c2[nH]c(-c3ccccn3)nc21`, the midpoint of inhibition, the IC50, lay at 20 µM. The same measure, in the same setting: the value for `O=C1C=C(Nc2ccc(I)cc2)C(=O)c2[nH]c(-c3ccccn3)nc21` was 20 µM; that for `O=C1C(Cl)=C(Nc2ccc(F)cc2F)C(=O)c2[nH]cnc21` was 2.7 µM. `O=C1C=C(Nc2ccc(Cl)cc2)C(=O)c2[nH]c(-c3ccccn3)nc21` came in with an IC50 of 13 µM.

Turning to `O=C1C(Cl)=C(Nc2cc(F)c(F)c(F)c2)C(=O)c2nc(-c3ccccn3)c(-c3ccccn3)nc21`, the 50% inhibitory concentration (IC50) was 1.2 µM. Turning to `O=C1C(Br)=C(Nc2ccc(C(F)(F)F)cc2)C(=O)c2[nH]cnc21`, the half-inhibitory concentration (IC50) is 3.1 µM. `Cc1nc2c(nc1C)C(=O)C(Nc1ccc(Cl)cc1)=CC2=O` returned a 50% inhibitory concentration (IC50) of 3.3 µM. In the case of `Cc1nc2c(nc1C)C(=O)C(Nc1ccc(F)cc1)=CC2=O`, inhibition was half-maximal at 3.1 µM (IC50) and the pIC50 was found to be 5.51. `O=C1C(Cl)=C(Nc2ccc(F)cc2)C(=O)c2[nH]c(-c3ccncc3)nc21` registered a 50% inhibitory concentration (IC50) of 50 µM. In the case of `O=C1C(Cl)=C(Nc2ccc(O)cc2)C(=O)c2nc(-c3ccccn3)c(-c3ccccn3)nc21`, the half-maximal inhibitory concentration (IC50) stood at 5.5 µM and the pIC50 worked out at 5.26. In turn, `O=C1C(Cl)=C(Nc2cccc(Cl)c2)C(=O)c2[nH]c(-c3ccncc3)nc21` returned a half-maximal inhibitory concentration (IC50) of 31 µM.

Turning to `COc1ccc(NC2=C(Cl)C(=O)c3nc(-c4ccccn4)c(-c4ccccn4)nc3C2=O)cc1`, the IC50 worked out at 3.5 µM and the negative logarithm of the IC50 (pIC50) stood at 5.46.

`O=C1C(Cl)=C(Nc2cccc(Br)c2)C(=O)c2[nH]c(-c3ccccn3)nc21` registered an IC50 of 20 µM. `O=C1C(Cl)=C(Nc2ccc(Br)cc2)C(=O)c2[nH]c(-c3ccncc3)nc21` yielded an IC50 of 60 µM. Turning to `O=C1C(Cl)=C(Nc2ccccc2)C(=O)c2nc(-c3ccccn3)c(-c3ccccn3)nc21`, it took 3.1 µM to reach half-maximal inhibition (IC50). On the same count and under the same terms, the result for `CCOc1ccc(NC2=CC(=O)c3nc(C)c(C)nc3C2=O)cc1` reads 1.5 µM.

As usually defined, the IC50 is the concentration that inhibits the measured activity by half. Lower therefore signals greater potency. As a reminder, the pIC50 is the IC50 on a negative log10 scale, so that one unit is a factor of ten. A higher pIC50 goes with a low IC50.

(Values after ChEMBL document CHEMBL1142541, “3D-QSAR studies of heterocyclic quinones with inhibitory activity on vascular smooth muscle cell proliferation using pharmacophore-based alignment” (Bioorg Med Chem, 2008).)
